Data set [1] has as its target T1, Microsomal triglyceride transfer protein (MTP) (Homo sapiens, UniProt P55157).
T1 construct: The MTP assay was performed by incubating 50 μg cellular protein with 10 μl of donor and acceptor solutions; endogenous in cells; host or cells: Huh7.5.1 human hepatoma cells (sonicated homogenate, 50 µg cellular protein)
In words: Microsomal triglyceride transfer protein (MTP) activity assay in Huh7.5.1 cell homogenates. The conditions noted are these: Huh-7.5.1, 24 hours stimulation of Huh7.5.1 cells. In kind it is cell-based. The protocol: MTP activity was analyzed using an MTP assay kit as previously described (11). The assay is based on a transfer of a fluorescent signal between donor and acceptor particles due to MTP activity. Briefly, confluent Huh7.5.1 cells stimulated with naringenin or carrier control for 24 hours then washed with ice cold PBS and scraped off the dish using a cell scraper. Samples were homogenized by sonication (3×5 sec) in buffer containing protease inhibitors. The MTP assay was performed by incubating 50 μg cellular protein with 10 μl of donor and acceptor solutions in 250 μl total buffer (15 mM Tris pH 7.4; 40 mM NaCl; 1 mM EDTA). Increase in fluoresecent signal was measured over 12 hours at 37° C. at the excitation wavelength of 465 nm and emission wavelength of 538 nm.

The test system of data set [2] is primary human hepatocytes.
Data set [3] relates to Caco-2 cell monolayer. Nature of the data set: Transport across Caco-2 cell monolayer (apical to basolateral). In kind it is in vitro ADME. The conditions noted are these: human, Caco-2, 2 h, pH 7.35. On the procedure:
The Caco-2 cell line is an immortalized line of human epithelial colorectal adenocarcinoma cells, which is widely used by the pharmaceutical industry to predict the absorption rate of candidate drug compounds across the intestinal epithelial cell barrier. Caco-2 cells were grown and allowed to form confluent monolayers on transwell filters for 21 days as previously described^39. In detail, Caco-2, human epithelial colorectal adenocarcinoma cells were cultured in tissue culture flasks (Becton Dickinson and Co., Lincoln Park, N.J.). The growth medium was Dulbecco's modified Eagle's medium supplemented with 10% fetal bovine serum, 1% nonessential amino acids, and 4 mM glutamine without antibiotics. The monolayer cultures were grown in a CO2 incubator (5% CO2) at 37° C. The cells were harvested with 0.25% trypsin and 0.2% EDTA (0.5 to 1 min at 37° C.), resuspended, and seeded into a new flask. Cells between 30 to 53 passages were used.
For the transport studies, Caco-2 cells were seeded on Transwell (0.4-μm pore size, 1-cm^2 growth area; Corning Costar Co.) at a cell density of 1×10^5 cells/filter. Cell growth and maintenance was kept as previously described (98). […] The concentrations of Naringenin or HPbCD-Neringenin were determined as described and plotted as a concentration on the basolateral side vs. time. […]
(Passage across Caco-2 layers is used to estimate intestinal permeability.)

The conditions of data set [4]: oral; cited from earlier work.
Data set [5] relates to S-180 sarcoma cell line. The conditions noted are these: intraperitoneal or peroral injection once a day for 5 days, mice, cited from earlier work.
In data set [6] the test system is HCV (JFH-1) in Huh-7.5.1 cells. Nature of the data set: Intracellular HCV RNA and core protein in infected Huh-7.5.1 cells. In kind it is cell-based, Hepatitis C virus. The protocol: HCV-infected Huh-7.5.1 cells were plated on a 6-well plate at a density of 1×10^5 cells/cm^2 and cultured overnight in standard medium. Prior to the beginning of the experiment, the cells were washed 3 times with PBS and cultured with DMEM containing 5% lipoprotein-free FBS. Oleate, Insulin, Naringenin, and Brefeldin A were added at this time as described in the text. Following 24 hours of incubation, the plate was gently agitated to release mechanically bound particles, the media was collected, filtered to remove cellular debris, and stored at −80° C. for further analysis. The attached cells were washed 3 times with PBS, harvested, pelleted and stored at −80° C. for further analysis.
Virus samples collected in each experiment were filtered with a 0.45 μm filter and a volume of 100 μL for each sample was heated at 95° C. for 45 min. The reverse transcription reaction step was performed on a Mastercycler epgrdientS (Eppendorf) instrument using Omniscript and Sensiscript RT Kits (Qiagen). Real time PCR was performed on a Light Cycler LC-24 (Idaho Technology), using SuperScript™ III Platinum® CellsDirect Two-Step qRT-PCR Kits (Invitrogen) for quantitative PCR. For reverse transcription step, 2 μL of sample without RNA extraction were used. For real time PCR, 1 μL of the reverse transcription reactions was used. All reactions were performed according to the manufacturer's instructions using the primers detailed in Table 1.
Huh-7.5.1 cells were washed 3 times with PBS and fixed in 4% EM-grade paraformaldehyde for 10 minutes at room temperature. Slides were then washed with PBS and incubated in 100 mmol/L glycine for 15 minutes to saturate reactive groups. Samples were permeabilized for 15 minutes with 0.1% Triton X-100, blocked for 30 minutes with 1% bovine serum albumin and 5% donkey serum at room temperature, and stained with primary antibodies overnight at 4° C. After additional washes with PBS, samples were stained with fluorescently tagged secondary antibodies for 45 minutes at room temperature.

Data set [7] is described as follows: physchem. The conditions noted are these: 37 °C, water, thermodynamic from solid, naringenin solubility in water.
The subject of data set [8] is HMGR. Nature of the data set: HMGR transcription by qPCR in infected Huh7.5.1 cells. The data set is classed as cell-based, human. Conditions: naringenin 24 hours, infected Huh-7.5.1 cells. A general note: Quantitative PCR measures a nucleic acid by following its amplification.
In data set [9] the test system is MTP. In words: MTP mRNA level by qPCR in infected Huh7.5.1 cells. In kind it is cell-based, human. The conditions noted are these: naringenin 24 hours.
Data set [10] relates to ACAT1. Nature of the data set: ACAT1 mRNA level by qPCR in infected Huh7.5.1 cells. In kind it is cell-based, human. The conditions noted are these: naringenin 24 hours.

Values after ≈ are worked out from the molar mass of the structure shown. “Also recorded” adds a separate entry of the source. Where two headings read alike, the source gives them in different places.

T1 sequence (P55157 19-894): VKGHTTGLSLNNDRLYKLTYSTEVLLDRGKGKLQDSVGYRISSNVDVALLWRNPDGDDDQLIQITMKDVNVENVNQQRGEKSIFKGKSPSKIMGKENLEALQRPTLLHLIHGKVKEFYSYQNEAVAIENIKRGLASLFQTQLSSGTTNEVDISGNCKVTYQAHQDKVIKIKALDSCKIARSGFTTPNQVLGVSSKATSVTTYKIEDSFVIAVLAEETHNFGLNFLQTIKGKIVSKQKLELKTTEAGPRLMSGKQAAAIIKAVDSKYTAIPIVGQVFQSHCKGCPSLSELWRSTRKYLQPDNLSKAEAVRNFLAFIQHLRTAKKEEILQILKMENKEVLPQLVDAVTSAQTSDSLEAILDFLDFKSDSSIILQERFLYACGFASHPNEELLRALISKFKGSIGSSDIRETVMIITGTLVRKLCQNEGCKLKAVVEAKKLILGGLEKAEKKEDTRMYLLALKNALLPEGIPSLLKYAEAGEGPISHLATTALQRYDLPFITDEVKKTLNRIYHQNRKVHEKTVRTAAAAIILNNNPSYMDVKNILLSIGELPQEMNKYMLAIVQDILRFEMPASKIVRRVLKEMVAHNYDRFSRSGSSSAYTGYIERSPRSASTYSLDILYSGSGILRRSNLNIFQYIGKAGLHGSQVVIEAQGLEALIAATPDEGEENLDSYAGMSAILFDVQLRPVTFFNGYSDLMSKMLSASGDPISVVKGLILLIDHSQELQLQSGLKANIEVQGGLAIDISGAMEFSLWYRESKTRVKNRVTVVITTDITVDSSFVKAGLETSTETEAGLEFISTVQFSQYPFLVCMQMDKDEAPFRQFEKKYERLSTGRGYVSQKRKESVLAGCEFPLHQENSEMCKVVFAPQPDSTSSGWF
T1 sequence (P07237 18-508 partner): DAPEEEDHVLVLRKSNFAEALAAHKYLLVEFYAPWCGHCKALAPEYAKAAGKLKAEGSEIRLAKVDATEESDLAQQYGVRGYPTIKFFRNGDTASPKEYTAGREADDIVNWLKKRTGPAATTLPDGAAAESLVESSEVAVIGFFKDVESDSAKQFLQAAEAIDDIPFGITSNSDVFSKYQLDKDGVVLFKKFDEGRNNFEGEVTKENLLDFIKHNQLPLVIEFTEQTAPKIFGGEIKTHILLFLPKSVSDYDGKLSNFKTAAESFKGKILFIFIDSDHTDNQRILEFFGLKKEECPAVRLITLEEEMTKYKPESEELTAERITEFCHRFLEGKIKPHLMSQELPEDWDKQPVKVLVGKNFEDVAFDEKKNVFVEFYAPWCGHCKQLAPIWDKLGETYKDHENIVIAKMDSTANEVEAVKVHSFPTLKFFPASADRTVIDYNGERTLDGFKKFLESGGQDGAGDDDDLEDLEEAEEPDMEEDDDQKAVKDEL

As for `O=C1C[C@@H](c2ccc(O)cc2)Oc2cc(O)cc(O)c21` [naringenin], the inhibition (commonly how much of the control response was suppressed) at 200 µM in [1] is 58%. Further, in data set [2] (24 hours exposure), the “concentration up to which naringenin is non-toxic to freshly isolated human hepatocytes” value is “greater than 1000 μM” and the “naringenin concentration above which human hepatocyte viability dropped significantly” value is “greater than 1000 μl”. In addition, the human hepatocyte viability in [2] (human, 24 h, 200 μM) is 81%±3%. In addition, in data set [3], the “maximal naringenin concentration in basal chamber” value is 0.05 mM. Further, the “absorbance through the intestinal wall (intestinal absorption)” value in data set [4] is “about 6%”. Also, the “tumor growth of S-180 sarcoma” value in data set [5] was “significantly inhibit”. Also, the “tumor growth of S-180 sarcoma” value in data set [5] (listed as Naringenin) is listed as “significantly inhibits”. For the same compound, in data set [6] (24 hours stimulation), the “intracellular HCV core protein expression” value is reported as “remained unchanged” and the “intracellular levels of HCV (positive strand) RNA” value is “remains unchanged”. Also, the “HCV replication (intracellular HCV RNA), long-term treatment” value in data set [6] (long-term treatment, naringenin 200 μM, IFNα 1000 i.u.) was “didn't appear to effect; also recorded: remained unchanged”. Besides, the solubility (as a rule, the concentration that dissolves in the medium under given conditions) in data set [7] stood at 40 µM (≈ 10.9 µg/mL). Also, the “reduction of HMGR transcription” value in data set [8] is on record as 57%±3%. In addition, the “MTP mRNA level” value in [9] was “remained unchanged”. The “ACAT1 mRNA level” value in data set [10] was “remained unchanged”.

Source of the values: US20160228575A1, “NARINGENIN COMPLEXES AND METHODS OF USE THEREOF” (THE GENERAL HOSPITAL CORPORATION, priority 2008, published 2016).
